In US6037333A, “Microbe-inhibiting compositions” (Trustees of Tufts College, priority 1998, dated 2000):
Entries after “also recorded” stand apart in the source; their conditions may differ.

What was measured:
[1] = target: mannose binding protein (MBP) of Acanthamoeba (Acanthamoeba castellanii, UniProt Q6J288); experiment: Solid-phase assay of 35S-labeled Acanthamoeba binding to Man-BSA coated wells; parameters: species or system Acanthamoeba strain MEEI 0184 (A. castellani); details: for Inhibition of Acanthamoeba binding to Man-BSA: at 100 mM; for Inhibition of amoebic binding to Man-BSA / affinity of amoebic lectin: no concentration stated
Chain of mannose binding protein (MBP) of Acanthamoeba (Q6J288 entry or part of it): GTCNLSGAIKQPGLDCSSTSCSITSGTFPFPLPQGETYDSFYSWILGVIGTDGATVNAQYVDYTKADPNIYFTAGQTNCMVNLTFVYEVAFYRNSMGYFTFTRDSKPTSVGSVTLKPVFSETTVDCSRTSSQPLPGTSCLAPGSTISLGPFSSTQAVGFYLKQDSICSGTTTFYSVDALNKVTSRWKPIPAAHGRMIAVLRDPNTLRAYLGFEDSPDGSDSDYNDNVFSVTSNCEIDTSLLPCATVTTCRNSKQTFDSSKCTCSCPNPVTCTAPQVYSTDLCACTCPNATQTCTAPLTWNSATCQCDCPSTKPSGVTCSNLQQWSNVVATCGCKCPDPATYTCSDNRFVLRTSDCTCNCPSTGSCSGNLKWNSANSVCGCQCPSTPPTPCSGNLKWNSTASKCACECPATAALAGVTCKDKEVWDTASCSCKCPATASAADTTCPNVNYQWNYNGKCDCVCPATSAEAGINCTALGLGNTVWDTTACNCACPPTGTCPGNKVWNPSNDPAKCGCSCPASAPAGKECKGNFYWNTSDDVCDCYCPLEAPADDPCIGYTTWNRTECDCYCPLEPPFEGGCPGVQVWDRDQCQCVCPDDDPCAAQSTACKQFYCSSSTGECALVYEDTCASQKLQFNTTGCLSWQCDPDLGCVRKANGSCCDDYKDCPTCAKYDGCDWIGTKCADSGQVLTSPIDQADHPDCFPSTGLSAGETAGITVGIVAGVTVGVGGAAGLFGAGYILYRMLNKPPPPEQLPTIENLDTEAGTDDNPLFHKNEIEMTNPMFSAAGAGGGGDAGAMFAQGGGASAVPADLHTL
Description: The Acanthamoeba strain MEEI 0184 (A. castellani based on morphological characteristics) was derived from an infected human cornea and used throughout this study. ATCC strain 30868 should have similar properties. The parasites were axenically cultured in PYG medium. A solid-phase assay characterized the sugar binding properties of the mannose binding protein (MBP) of Acanthamoeba (Z. Yang et al., Infect. Immun. 65:439-445, 1997). Briefly, wells of microtiter plates were coated with bovine serum albumin-α-D-mannopyranosyl phenylisothiocyanate (Man-BSA, 15-25 moles of α-D-mannopyranoside/mole albumin, 0.03 μg/ml, 50μl/well in 0.1 M sodium carbonate buffer, pH 9.6, 4° C. overnight). Nonspecific binding was blocked with 1% BSA in phosphate buffered saline (PBS, 1 hour, room temperature). After adding a 50-μl aliquot of ^35 S-labeled Acanthamoeba (5×10^6 cells/ml in PBS; 1 to 2 cpm/parasite, >95% trophozoites) to each well, the plates were incubated for 2 hours at room temperature. After rinsing the cells with PBS to remove unbound Acanthamoeba, 0.1 ml of 2% sodium dodecyl sulfate (SDS) was added to each well, and the radioactivity in aliquots of solubilized material was determined in a scintillation counter.

Acanthamoeba [2] = experiment: Acanthamoeba-induced cytopathic effect (CPE) assay, immortalized corneal epithelial cultures; type: cell-based; details: for Inhibition of amoeba-induced CPE: no concentration stated
Description: Corneal epithelial cells with extended life span were also produced.
(§1) To characterize the role of carbohydrate-mediated host-parasite interactions in the Acanthamoeba-induced cytotoxicity of host cells, in vitro cytopathic assays were performed using both primary and immortalized cultures of corneal epithelium as host cells. Immortalized cells were assayed as confluent cultures in 24-well plates, and primary cells were assayed as confluent cells in 35-mm dishes or 6-well plates.
(§2) The plates were incubated at 37° C. in a CO2 incubator and periodically examined under a phase-contrast microscope for the presence of cell-free plaques in the monolayer for up to 28-30 hours. Control wells contained host cells without the parasites. At the end of the incubation period, the cultures were stained with Giemsa (Diff-Quik, Dade Diagnostic Inc., Aguada, PR). Approximate cell density in each well was estimated by scanning the stained plates in a calibrated, computer-assisted Bio-Image Scanner (Millipore, Ann Arbor, Mich.). Cytopathic effect (CPE) was expressed as percentage of the optical density by the following formula: [formula]
The CPE assays were performed in the SFB media containing one or more saccharides to be tested.
After staining with Giemsa, percent cell loss in each well was calculated based on the optical density in each well.

Acanthamoeba [3] = experiment: 51Cr release assay of amoeba-induced cytolysis of corneal epithelium; type: cell-based
Description: Chromium release experiments were performed to confirm the absence or occurrence of cytolysis. Visually, cell plaques or bare spots in a culture can indicate either cell loss by cytolysis, or separation of the cell from the culture surface, wherein detached cells, although initially viable, subsequently die. Cell lysis was quantified by measuring ^51 Cr release from prelabeled cells. After incubating confluent monolayer cultures of corneal epithelium in 24-well plates in cell culture medium containing Na^51 CrO4 (460 mCi/mg, 12 μCi/ml) for 18-20 hours, the cells were thoroughly rinsed and incubated with Acanthamoeba (1×10^6 parasites/ml SFB media). The four groups were (i) Acanthamoeba in media alone, (ii) Acanthamoeba in media containing α-Man, (iii) Acanthamoeba in media containing GlcNAc, and (iv) Acanthamoeba condition media. When approximately 50-70% cell loss occurred based on phase contrast microscopy, aliquots of cell-free conditioned medium from each well were analyzed. Supernatants from the four wells in each group were pooled before analysis. Percent specific release was calculated using E/T×100, where E is CPM released in test well minus CPM released in control (parasite-free) well and T is the total CPM (CPM cells+CPM supernatant in control wells). "CPM cells" was determined by incubating control wells with 0.5% Triton X-100. Conditioned media from each well was also analyzed for lactate dehydrogenase (LDH) release using an LDH assay kit (Sigma).

Acanthamoeba [4] = experiment: Acanthamoeba-induced CPE assay, primary cultures of corneal epithelium; type: cell-based; details: primary cultures as target cells
Description: In vitro cytopathic assays were performed using cell cultures of corneal epithelium as target cells. Primary cell cultures of rabbit corneal epithelium were prepared according to published protocols (M. M. Jumblatt, Invest. Opthalmol. Visual Sci. 24:1139-43, 1983) using rabbit eyes from Pel-Freez Biologicals (N. Panjwani et al., Invest. Opthalmol. Visual Sci. 31:689-695, 1990) (Rogers, AK). Generally, seventy-five eyes were processed at a time. Primary cultures have limited life span and can only be passaged 2 to 3 times without significant alteration in cell morphology.
as §1
as §2, with “The parasites (>95% trophozoites) were rinsed three times in a serum-free Eagle's minimum essential medium supplemented with 0.4% bovine serum albumin (SFB) and aliquots of the parasite suspension (0.2×10^5 to 1×10^6 parasites/ml SFB medium, 300 μl/well for 24-well plates and 500 μl/well for 6-well plates or 35-mm dishes) were added to wells of confluent epithelial cultures which had been rinsed and preincubated in SFB medium for 2 hours. The” for “The”
Primary cultures were less susceptible to amoeba-induced CPE, requiring 1×10^6 parasites/ml to completely destroy the monolayer within 24 hours. This parasite concentration was five times higher than that required to produce the same effect when immortalized cultures were used as target host cells.

[5] = tested on: Acanthamoeba-conditioned medium (ACM); experiment: CPE assay with Acanthamoeba-conditioned medium (ACM); type: cell-based
Description: To determine whether the mechanism modulating the CPE produced by intact amoeba and amoeba-conditioned medium (ACM) are distinct, CPE and assays were also performed using ACM in the presence and the absence of saccharides. To produce ACM, exponentially growing parasites (>95% trophozoites) in PYG media (Proteose Peptone-yeast extract-glucose , J. T. Bornes et al., J. Parasitol. 56:904-906, 1970) were rinsed twice with SFB medium and incubated in serum-free SFB medium at concentrations between 2×10^5 to 1×10^6 cells/ml in a CO2 incubator for 24 hours. After removing the parasites by centrifugation, each supernatant was analyzed for its ability to induce CPE. Saccharides (α-Man and GIcNAc, 50 mM) were added either to the ACM after it was produced or to serum-free medium used to produce an ACM. The ACM produced in the presence of the saccharides was also analyzed after removal of the saccharides by centrifugation through Centricon 3 microconcentrators (Amicon Inc., Beverly, Mass.).
To determine the role of the parasitic secretory factors in the cytopathogenic mechanism, chromium release and CPE assays were performed using ACM. In this study, parasites were incubated in the SFB media for 24 hours, centrifuged to remove parasites and the conditioned medium was tested for its ability to produce cytolysis and CPE. The ACM produced remarkable CPE. […] Approximately 6 to 8 hours following the incubation of the monolayer with the ACM, the cell sheet at the edges of the monolayer began to lift and roll inwards and eventually the entire monolayer lifted en bloc from the dish. These observations were similar to those seen when the monolayers were incubated with trophozoites in the presence of α-Man. Unlike the CPE induced by intact amoeba, the CPE induced by the ACM was not inhibited by either α-Man or GlcNAc when the sugars were added to the ACM after it was produced. In the next set of experiments, ACM was produced in the presence of α-Man or GIcNAc and was tested for CPE-inducing activity. […] In addition, the filtrate and retentate obtained after filtering the ACM in Centricon 3 microconcentrators were tested for CPE-inducing activity. When the ACM was produced in the absence of either sugar, substantially all of the CPE-inducing activity was found in the retentate obtained after Centricon filtration.

Acanthamoeba [6] = experiment: Adhesion of amoebae to corneal epithelial cell monolayer; type: cell-based; details: saccharide present in media; listed as GlcNAc
proteinases E1, E2 = experiment: Zymography with proteinase inhibitors, media conditioned by epithelial cells alone; type: biochemical, rabbit; details: inhibitor 1 mM
Description: (§3) To characterize the mechanism by which the mannose-mediated host-parasite interactions influence the amoeba-induced cytolysis and/or cytopathic effect, conditioned media obtained by incubating amoebae with primary cultures of corneal epithelium in the presence and absence of α-Man for 6 to 8 hours were analyzed by zymography. Media conditioned by only Acanthamoeba or only epithelial cells were also analyzed. Zymography was performed using separating gels containing 10% acrylamide and 2 mg/ml gelatin, essentially as described by D. E. Kleiner et al. (Anal Biochem. 218:325-329, 1994). Samples were diluted in the electrophoresis sample buffer (U. K. Laemmli, Nature 227:680-685, 1970) without mercaptoethanol and were applied to the gels. After electrophoresis, proteinases separated on the gels were renatured by incubating the gels in 2.5% Triton X-100 in 50 mM Tris-HCl, pH 7.5 to remove SDS. After incubating the gels for 18 hours in a developing buffer (50 mM Tris-HCl, pH 7.5 containing 10 mM CaCl2), the gels were stained with Coomassie brilliant blue. Areas of digestion were visualized as non-staining regions. In some experiments, samples were pre-treated with phenylmethylsulfonyl fluoride (PMSF, 1 mM), an inhibitor of […] for one hour prior to electrophoresis, or 1,10-phenanthroline (1 mM), an inhibitor of metalloproteinases, was added to the developing buffer.

[7] = target: proteinases P1, P2, P3, P4; experiment: Zymography with proteinase inhibitors, components P1-P4; type: biochemical, Acanthamoeba; details: inhibitor 1 mM
Description: as §3

N[C@H]1C(O)O[C@H](CO)[C@@H](O)[C@@H]1O (stereo partly drawn) [D-glucosamine] was tested, and the “Toxicity to the epithelium” value (corneal epithelium) was “Toxic” and the “Inhibition of Acanthamoeba binding to Man-BSA” value [1] was “did not inhibit”.
In the case of N[C@@H]1C(O)O[C@H](CO)[C@@H](O)[C@@H]1O (stereo partly drawn) [D-mannosamine], the “Inhibition of amoeba-induced CPE” value (Acanthamoeba [2]) is reported as “did not inhibit”, the “Toxicity to the epithelium” value (corneal epithelium) is reported as “Toxic” and the “Inhibition of Acanthamoeba binding to Man-BSA” value [1] is reported as “did not inhibit”. For the same compound, the “Inhibition of amoebic binding to Man-BSA / affinity of amoebic lectin” value [1] was “did not inhibit”.
In the case of CC(=O)N[C@H]1C(O)O[C@H](CO)[C@@H](O)[C@@H]1O (stereo partly drawn) [N-acetyl-D-glucosamine], the inhibition at 310 µM (Acanthamoeba [2]; Acanthamoeba, in Oryctolagus cuniculus, at 0.31 mM, read-out: Inhibition of cytopathic effect (% inhib. at indicated conc.)) is reported as 60%, the “Inhibition of amoeba-induced CPE” value (Acanthamoeba [2]; listed as GlcNAc) is reported as “inhibits CPE; also recorded: potent inhibitor; also recorded: nearly identical” and the “Attachment of cell layer to culture dish” value (Acanthamoeba [2]; primary and immortalized cultures, entire assay period of 28 hours) is reported as “remained firmly adhered”. For the same compound, the “Amoeba-induced cytolysis of corneal epithelial cells (microscopy, words)” value (Acanthamoeba [2]; saccharide present in media) was “little evidence of cytolysis”, the “Percentage specific 51Cr release” value (Acanthamoeba [3]; Acanthamoeba 1×10^6 parasites/ml in media containing the saccharide, media alone about 100) was ~80% and the “Inhibition of amoeba-induced cytolysis” value (Acanthamoeba [3]; fifty millimolar, 51Cr release) was 10-20%. For the same compound, the “Inhibition of amoeba-induced CPE” value (Acanthamoeba [4]) was “inhibited”, the “CPE-inducing activity of ACM produced with saccharide, after removal of saccharide by Centricon filtration” value ([5]; saccharide 50 mM) was “did not have CPE-inducing activity” and the “CPE-inducing activity of ACM produced in SFB containing the saccharide” value ([5]; saccharide 50 mM in medium used to produce ACM) was “did not induce CPE”. For the same compound, the “Inhibition of ACM-induced CPE” value ([5]; sugar (50 mM) added to the ACM after it was produced) was “not inhibited”, the “Adhesion of amoebae to the cell monolayer in presence of saccharide” value (Acanthamoeba [6]) was “poor inhibitor; also recorded: adhered tightly” and the “Inhibition of amoebic binding to Man-BSA / affinity of amoebic lectin” value ([1]; listed as GlcNAc) was “weak inhibitor”. It also gave an inhibition at 50000 µM ([1]; read-out: Inhibition of binding, % at indicated conc.) of 50%.
For O=S(=O)(F)Cc1ccccc1 [PMSF, phenylmethylsulfonyl fluoride], the “Susceptibility of component E1 (93 kD) to inhibitor” value (proteinases E1, E2) was “resistant”, the “Susceptibility of component E2 (63 kD) to inhibitor” value (proteinases E1, E2) was “resistant” and the “Susceptibility of component P1 (230 kD) to inhibitor” value [7] was “susceptible”. The “Susceptibility of component P2 (97 kD) to inhibitor” value [7] was “susceptible”, the “Susceptibility of component P3 (80 kD) to inhibitor” value [7] was “resistant” and the “Susceptibility of component P4 (55 kD) to inhibitor” value [7] was “susceptible”.
